Peptide text beside a SMILES is read from it.

This series is described as follows: Thermal denaturation of trimeric coiled coil peptides by CD thermal scan (signal at 222 nm versus temperature, curve fitting). It is filed as physicochemical. As to conditions: core mutants at positions 3a and 3d of the reference peptide with glutamine at 2a; Figure 9. On the procedure: The said synthesized peptide was dissolved at a concentration of 292 microM in 20 mM phosphate buffer (PBS), 150 mM NaCl, pH 7.2. The CD spectra were measured between […], at 5 and 90 degrees Celsius (Figure 3). The spectrum at 5 degrees Celsius was indicative of a high alpha-helical secondary structure content, in agreement with the expectation that all heptad regions, but not all of the flanking residues, would assemble as alpha-helical coiled coils.
To analyse whether the temperature-induced transition between helical and nonhelical states was reversible, a forward (up) and backward (down) thermal scan was performed on the same sample, by recording the CD signal at […] as a function of temperature at a scanning rate of about 1 degree Celsius per minute (Figure 4). It was observed that the up and down scans almost perfectly coincided, thereby confirming the quantitative unfolding and refolding of the peptides in the sample.
It was further analyzed whether the thermal unfolding curve of Figure 4 conformed to the thermodynamic equations describing the equilibrium folding/unfolding reaction between three molecules free (monomeric) peptide and one entity of folded (trimeric) complex. This reaction is generally written as 3 peptide <=> peptide3 wherein "<=>" refers to a chemical equilibrium, "peptide" to a monomeric peptide in solution and "peptide3" to a trimeric entity in the folded (assembled, associated) state. This thermal unfolding curve was fitted to the theoretic equations: θ(T) = θM (T) + (θT(T)-θM(T))(1+root(F(-(1)/(2)+sqrt((1)/(4) + (F)/(27))), 3)+root(F(-(1)/(2)-sqrt((1)/(4) + (F)/(27))), 3)) [formula] wherein F = (exp(-(ΔHt)/(RT)(1-T/T1)-(ΔCp)/(RT)(T-Tt-Tln(T/Tt))))/(4) [formula] and T≡ the temperature, in degrees Kelvin, of the sample θ(T)≡ the CD-signal [theta]222 nm, in deg cm^2 dmol^-1, as a function of T θM(T)≡ the CD-signal for 100% free (monomeric) peptide as a function of T θT(T) ≡ the CD-signal for 100% associated (trimeric) peptide as a function of T Tt ≡ the transition temperature, where 50% of the total peptide concentration is associated ΔHt ≡ the enthalpy difference, in kJ per mole peptide, between mono- and trimeric states ΔCp ≡ the heat capacity difference, in J mol^-1 K^-1, between mono- and trimeric states R ≡ the ideal (universal) gas constant ≡ 8.31 J mol^-1 K^-1
The global CD signal was somewhat lower than expected, which could be due to an instrumental deviation, an error in the concentration determination, a lower purity, or a lower than expected alpha-helical content. Nevertheless, the main goal of this experiment was to examine the effect of the glutamine-to-isoleucine mutant on the stability of the complex. […] The estimated transition temperature was around 97 degrees Celsius, although the latter was difficult to determine because of incompleteness of the transition.
All ten peptides were analyzed by thermal CD scanning as in Examples 3 and 4. Fitting of the thermal denaturation curves, as described in Example 3, gave the corresponding transition temperatures shown in Figure 9. […]
On to `CC[C@H](C)[C@H](NC(=O)[C@H](C)NC(=O)[C@H](C)NC(=O)[C@H](CCC(N)=O)NC(=O)[C@H](CCC(N)=O)NC(=O)[C@H](CCCCN)NC(=O)[C@H](CCC(N)=O)NC(=O)[C@@H](NC(=O)[C@H](CCC(=O)O)NC(=O)[C@H](CCC(=O)O)NC(=O)[C@@H](NC(=O)[C@H](CO)NC(=O)[C@H](CCSC)NC(C)=O)[C@@H](C)CC)[C@@H](C)CC)C(=O)N[C@@H](CCC(N)=O)C(=O)N[C@@H](CCCCN)C(=O)N[C@@H](CCC(N)=O)C(=O)N[C@H](C(=O)N[C@@H](C)C(=O)N[C@@H](C)C(=O)N[C@@H](C)C(=O)N[C@@H](CCC(N)=O)C(=O)N[C@@H](CCCCN)C(=O)N[C@@H](CCC(N)=O)C(=O)N[C@H](C(=O)N[C@@H](Cc1ccc(O)cc1)C(=O)N[C@@H](CCCNC(=N)N)C(=O)N[C@@H](CCSC)C(=O)N[C@H](C(=O)N1CCC[C@H]1C(N)=O)[C@@H](C)O)[C@@H](C)CC)[C@@H](C)CC` [3dA] (Ac-MSIEEIQKQQAAIQKQIAAAQKQIYRMTP-NH2), for which the “effect of core substitution on stability (transition temperature) compared to the reference peptide comprising isoleucine at positions 3a and 3d” value is “relatively strong”. The value for `CC[C@H](C)[C@H](NC(=O)[C@H](C)NC(=O)[C@H](C)NC(=O)[C@H](CCC(N)=O)NC(=O)[C@H](CCC(N)=O)NC(=O)[C@H](CCCCN)NC(=O)[C@H](CCC(N)=O)NC(=O)[C@@H](NC(=O)[C@H](CCC(=O)O)NC(=O)[C@H](CCC(=O)O)NC(=O)[C@@H](NC(=O)[C@H](CO)NC(=O)[C@H](CCSC)NC(C)=O)[C@@H](C)CC)[C@@H](C)CC)C(=O)N[C@@H](CCC(N)=O)C(=O)N[C@@H](CCCCN)C(=O)N[C@@H](CCC(N)=O)C(=O)N[C@H](C(=O)N[C@@H](C)C(=O)N[C@@H](C)C(=O)N[C@H](C(=O)N[C@@H](CCC(N)=O)C(=O)N[C@@H](CCCCN)C(=O)N[C@@H](CCC(N)=O)C(=O)N[C@H](C(=O)N[C@@H](Cc1ccc(O)cc1)C(=O)N[C@@H](CCCNC(=N)N)C(=O)N[C@@H](CCSC)C(=O)N[C@H](C(=O)N1CCC[C@H]1C(N)=O)[C@@H](C)O)[C@@H](C)CC)C(C)C)[C@@H](C)CC` [3dV] (Ac-MSIEEIQKQQAAIQKQIAAVQKQIYRMTP-NH2) was “relatively strong”; that for `CC[C@H](C)[C@H](NC(=O)[C@H](C)NC(=O)[C@H](C)NC(=O)[C@H](CCC(N)=O)NC(=O)[C@H](CCC(N)=O)NC(=O)[C@H](CCCCN)NC(=O)[C@H](CCC(N)=O)NC(=O)[C@@H](NC(=O)[C@H](CCC(=O)O)NC(=O)[C@H](CCC(=O)O)NC(=O)[C@@H](NC(=O)[C@H](CO)NC(=O)[C@H](CCSC)NC(C)=O)[C@@H](C)CC)[C@@H](C)CC)C(=O)N[C@@H](CCC(N)=O)C(=O)N[C@@H](CCCCN)C(=O)N[C@@H](CCC(N)=O)C(=O)N[C@@H](C)C(=O)N[C@@H](C)C(=O)N[C@@H](C)C(=O)N[C@H](C(=O)N[C@@H](CCC(N)=O)C(=O)N[C@@H](CCCCN)C(=O)N[C@@H](CCC(N)=O)C(=O)N[C@H](C(=O)N[C@@H](Cc1ccc(O)cc1)C(=O)N[C@@H](CCCNC(=N)N)C(=O)N[C@@H](CCSC)C(=O)N[C@H](C(=O)N1CCC[C@H]1C(N)=O)[C@@H](C)O)[C@@H](C)CC)[C@@H](C)CC` [3aA] (Ac-MSIEEIQKQQAAIQKQAAAIQKQIYRMTP-NH2) was “disruptive”.

The record behind these values is patent publication EP2161278B1, “Single-chain coiled coil scaffold” (Complix N.V., priority 2008, dated 2010).
